In US11685729B2, “C5a receptor modulators” (IDORSIA PHARMACEUTICALS LTD., priority 2018, dated 2023):
pIC50: −log10 of the molar value. Where two headings read alike, the source gives them in different places.

Molecular target: C5AR1 (Homo sapiens (Human), UniProt P21730)
Test: In vitro assay: PathHunter beta-arrestin antagonist assay in CHO-K1 C5AR1 beta-arrestin cell line, stimulated with C5a agonist
[1] = read-out: C5aR IC50, CHO-K1 C5AR1 beta-arrestin cell line, 1-10 nM C5a agonist, geometric mean values

Chain of C5AR1 (P21730 whole entry): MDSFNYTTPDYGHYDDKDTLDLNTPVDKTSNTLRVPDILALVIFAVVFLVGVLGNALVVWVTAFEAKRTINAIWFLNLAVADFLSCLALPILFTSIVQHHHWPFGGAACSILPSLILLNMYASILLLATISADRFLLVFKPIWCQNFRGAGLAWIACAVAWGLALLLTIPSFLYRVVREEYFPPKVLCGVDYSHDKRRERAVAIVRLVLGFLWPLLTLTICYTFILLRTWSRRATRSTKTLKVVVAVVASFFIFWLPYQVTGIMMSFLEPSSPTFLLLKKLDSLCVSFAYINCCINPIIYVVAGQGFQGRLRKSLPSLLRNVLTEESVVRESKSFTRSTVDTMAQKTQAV
Procedure: 5 μl Antagonist at 6-fold end concentration or DMSO control is added to assay medium and subsequently 5 μl 1-10 nM C5a agonist at 6 fold end concentration. Cells are centrifuged for 1 min at 1000 rpm and incubated for 1.5 hour in at 37° C. Plates are equilibrated at room temperature for several minutes before adding 12 μI/well Detection Reagent (PathHunter Detection Kit, DiscoverX, Cat #93-0001). Plates are centrifuged for 1 min at 1000 rpm and incubated for 45 minutes at RT before being measured on a Fluostar Optima, BMG Labtech. IC50 values are calculated from a serial dilution range of antagonist using inhouse software and given in nmol/l.
The calculated IC50 values may fluctuate depending on the daily cellular assay performance. […] Average IC50 values from several measurements are given as geometric mean values.

Cc1cccc(F)c1N1CCC(N2Cc3ccccc3N(Cc3nccnc3OC(C)C)C2=O)CC1 [Example 59, 3-[1-(2-Fluoro-6-methyl-phenyl)-piperidin-4-yl]-1-(3-isopropoxy-pyrazin-2-ylmethyl)-3,4-dihydro-1H-quinazolin-2-one]
pIC50 [1]: 7.42

Cc1cccc(F)c1N1CCC(N2Cc3ccccc3N(Cc3ncccc3OC(C)C)C2=O)CC1 [Example 60, 3-[1-(2-Fluoro-6-methyl-phenyl)-piperidin-4-yl]-1-(3-isopropoxy-pyridin-2-ylmethyl)-3,4-dihydro-1H-quinazolin-2-one]
pIC50 [1]: 7.55

Cc1cccc(F)c1N1CCC(N2Cc3ccccc3N(Cc3cnccc3C(C)C)C2=O)CC1 [Example 61, 3-[1-(2-Fluoro-6-methyl-phenyl)-piperidin-4-yl]-1-(4-isopropyl-pyridin-3-ylmethyl)-3,4-dihydro-1H-quinazolin-2-one]
pIC50 [1]: 7.44

Cc1cccc(F)c1N1CCC(N2Cc3ccccc3N(Cc3nccnc3C(C)C)C2=O)CC1 [Example 62, 3-[1-(2-Fluoro-6-methyl-phenyl)-piperidin-4-yl]-1-(3-isopropyl-pyrazin-2-ylmethyl)-3,4-dihydro-1H-quinazolin-2-one]
pIC50 [1]: 7.42

Cc1cccc(F)c1N1CCC(N2Cc3ccccc3N(Cc3cncnc3C(C)C)C2=O)CC1 [Example 63, 3-[1-(2-Fluoro-6-methyl-phenyl)-piperidin-4-yl]-1-(4-isopropyl-pyrimidin-5-ylmethyl)-3,4-dihydro-1H-quinazolin-2-one]
pIC50 [1]: 7.21

Cc1cccc(F)c1N1CCC(N2Cc3cncnc3N(Cc3ccccc3C(F)(F)F)C2=O)CC1 [Example 64, 3-[1-(2-Fluoro-6-methyl-phenyl)-piperidin-4-yl]-1-(2-trifluoromethyl-benzyl)-3,4-dihydro-1H-pyrimido[4,5-d]pyrimidin-2-one]
pIC50 [1]: 6.11

Cc1cccc(F)c1N1CCC(N2Cc3ccccc3N(Cc3cccnc3C(F)(F)F)C2=O)CC1 [Example 65, 3-[1-(2-Fluoro-6-methyl-phenyl)-piperidin-4-yl]-1-(2-trifluoromethyl-pyridin-3-ylmethyl)-3,4-dihydro-1H-quinazolin-2-one]
pIC50 [1]: 7.17

Cc1cccc(F)c1N1CCC(N2Cc3nnccc3N(Cc3ccccc3C(F)(F)F)C2=O)CC1 [Example 66, 7-[1-(2-Fluoro-6-methyl-phenyl)-piperidin-4-yl]-5-(2-trifluoromethyl-benzyl)-7,8-dihydro-5H-pyrimido[5,4-c]pyridazin-6-one]
pIC50 [1]: 5.72

Cc1cccc(F)c1N1CCC(N2Cc3ccccc3N(Cc3cnccc3C(F)(F)F)C2=O)CC1 [Example 67, 3-[1-(2-Fluoro-6-methyl-phenyl)-piperidin-4-yl]-1-(4-trifluoromethyl-pyridin-3-ylmethyl)-3,4-dihydro-1H-quinazolin-2-one]
pIC50 [1]: 7.34

Cc1cccc(F)c1N1CCC(N2Cc3ccccc3N(Cc3ccccc3OC3CC3)C2=O)CC1 [Example 68, 1-(2-Cyclopropoxy-benzyl)-3-[1-(2-fluoro-6-methyl-phenyl)-piperidin-4-yl]-3,4-dihydro-1H-quinazolin-2-one]
pIC50 [1]: 7.18

Cc1cccc(F)c1N1CCC(N2Cc3ccccc3N(Cc3ncccc3C(F)(F)F)C2=O)CC1 [Example 69, 3-[1-(2-Fluoro-6-methyl-phenyl)-piperidin-4-yl]-1-(3-trifluoromethyl-pyridin-2-ylmethyl)-3,4-dihydro-1H-quinazolin-2-one]
pIC50 [1]: 7.89

Cc1nn(C)c(N2CCC(N3Cc4ccccc4N(Cc4ccccc4C(F)(F)F)C3=O)CC2)c1C#N [Example 72, 1,3-Dimethyl-5-{4-[2-oxo-1-(2-trifluoromethyl-benzyl)-1,4-dihydro-2H-quinazolin-3-yl]-piperidin-1-yl}-1H-pyrazole-4-carbonitrile]
pIC50 [1]: 5.58

Cc1nn(C)c(N2CCC(N3Cc4ccccc4N(Cc4ccccc4C(F)(F)F)C3=O)CC2)c1Cl [Example 73, 3-[1-(4-Chloro-2,5-dimethyl-2H-pyrazol-3-yl)-piperidin-4-yl]-1-(2-trifluoromethyl-benzyl)-3,4-dihydro-1H-quinazolin-2-one]
pIC50 [1]: 5.87

Cc1cccc(F)c1N1CCC(N2Cc3ccccc3N(Cc3ccccc3OC(F)(F)F)C2=O)CC1 [Example 74, 3-[1-(2-Fluoro-6-methyl-phenyl)-piperidin-4-yl]-1-(2-trifluoromethoxy-benzyl)-3,4-dihydro-1H-quinazolin-2-one]
pIC50 [1]: 7.77

Cc1cccc(F)c1N1CCC(N2Cc3ccccc3N(Cc3ccccc3Cl)C2=O)CC1 [Example 75, 1-(2-Chloro-benzyl)-3-[1-(2-fluoro-6-methyl-phenyl)-piperidin-4-yl]-3,4-dihydro-1H-quinazolin-2-one]
pIC50 [1]: 7.26

O=C1N(Cc2ccccc2C(F)(F)F)c2ccccc2CN1C1CCN(c2c(F)cccc2C(F)(F)F)CC1 [Example 76, 3-[1-(2-Fluoro-6-trifluoromethyl-phenyl)-piperidin-4-yl]-1-(2-trifluoromethyl-benzyl)-3,4-dihydro-1H-quinazolin-2-one]
pIC50 [1]: 7.30

Cc1cccc(F)c1N1CCCC(N2Cc3ccccc3N(Cc3ccccc3C(F)(F)F)C2=O)CC1 (stereo not shown) [Example 77, 3-[1-(2-Fluoro-6-methyl-phenyl)-azepan-4-yl]-1-(2-trifluoromethyl-benzyl)-3,4-dihydro-1H-quinazolin-2-one]
pIC50 [1]: 6.76

O=C1N(Cc2ccccc2C(F)(F)F)c2ccccc2CN1C1CCN(c2c(F)cccc2OC(F)(F)F)CC1 [Example 78, 3-[1-(2-Fluoro-6-trifluoromethoxy-phenyl)-piperidin-4-yl]-1-(2-trifluoromethyl-benzyl)-3,4-dihydro-1H-quinazolin-2-one]
pIC50 [1]: 7.10

Cc1cccc(Cl)c1N1CCC(N2Cc3ccccc3N(Cc3ccccc3C(F)(F)F)C2=O)CC1 [Example 79, 3-[1-(2-Chloro-6-methyl-phenyl)-piperidin-4-yl]-1-(2-trifluoromethyl-benzyl)-3,4-dihydro-1H-quinazolin-2-one]
pIC50 [1]: 7.24

Cc1cccc(F)c1N1CCC(N2Cc3ccccc3N(Cc3nnccc3OC(C)C)C2=O)CC1 [Example 80, 3-[1-(2-Fluoro-6-methyl-phenyl)-piperidin-4-yl]-1-(4-isopropoxy-pyridazin-3-ylmethyl)-3,4-dihydro-1H-quinazolin-2-one]
pIC50: 5.75

Cc1cccc(F)c1N1CC(N2Cc3ccccc3N(Cc3ccccc3C(F)(F)F)C2=O)C1 [Example 81, 3-[1-(2-Fluoro-6-methyl-phenyl)-azetidin-3-yl]-1-(2-trifluoromethyl-benzyl)-3,4-dihydro-1H-quinazolin-2-one]
pIC50 [1]: 5.89

Cc1nc(C(F)(F)F)c(CN2C(=O)N(C3CCN(c4c(C)cccc4F)CC3)Cc3ccccc32)s1 [Example 83, 3-[1-(2-Fluoro-6-methyl-phenyl)-piperidin-4-yl]-1-(2-methyl-4-trifluoromethyl-thiazol-5-ylmethyl)-3,4-dihydro-1H-quinazolin-2-one]
pIC50 [1]: 5.88
